Data as given in patent US20020052343A1, “Salicylamides as serine protease inhibitors” (priority 1999, published 2002).

Assays:
[1] = molecular target: T1, human Factor Xa (Homo sapiens, UniProt P00742); test: Factor Xa inhibition, chromogenic substrate hydrolysis, Ki app.; assay type: biochemical; details: 2-3 nM human Factor Xa, substrate 1 mM, 50 mM Tris pH 7.5, absorbance at 405 nm, read-out: FXa Ki
T1 construct: purchased Haematologic Technologies, Vt., USA
Description: Some of the compounds of the present invention show selectivity between uPA and FXa, with respect to their inhibitory properties. The effectiveness of compounds of the present invention as inhibitors of Urokinase and Factor Xa is determined by using synthetic substrates and purified Urokinase and purified human Factor Xa respectively.
The rates of hydrolysis by the chromogenic substrates were measured both in the absence and presence of compounds of the present invention. Hydrolysis of the substrates result in the release of a chromogenic moiety, which is monitored spectrophotometrically by measuring the increase in absorbance at 405 nano meter (nm). A decrease in the rate of absorbance change at 405 nm in the presence of a inhibitor is indicative of enzyme inhibition. The results of this assay are expressed as the inhibitory constant, Ki app. Factor Xa determinations were made in 50 mM Tris buffer, pH 7.5, containing 1 M NaCl, 5 mM CaCl2, 0.05% Tween-20, and 1.5 mM EDTA. Values of Ki app. were determined by allowing 2-3 nM human Factor Xa (Haematologic Technologies, Vt., USA) to react with the substrate (1 mM) in the presence of an inhibitor. Hydrolysis of the chromogenic substrate is followed spectrophotometrically at 405 nm for five minutes. The enzyme assay routinely yielded linear progression curves under these conditions. Initial velocity measurements calculated from the progress curves by a kinetic analysis program (Batch Ki; Peter Kuzmic, BioKin, Ltd., Madison, Wis.) were used to determine Ki app.

[2] = molecular target: T2, human Urokinase (Homo sapiens, UniProt P00749); test: Urokinase (uPA) inhibition, chromogenic substrate hydrolysis, Ki app.; assay type: biochemical
T2 construct: purchased American Diagnostica, Conn., USA
Description: The effectiveness of compounds of the present invention as inhibitors of Urokinase and Factor Xa is determined by using synthetic substrates and purified Urokinase and purified human Factor Xa respectively.
The rates of hydrolysis by the chromogenic substrates were measured both in the absence and presence of compounds of the present invention. […] The results of this assay are expressed as the inhibitory constant, Ki app. Factor Xa determinations were made in 50 mM Tris buffer, pH 7.5, containing 1 M NaCl, 5 mM CaCl2, 0.05% Tween-20, and 1.5 mM EDTA. […] Initial velocity measurements calculated from the progress curves by a kinetic analysis program (Batch Ki; Peter Kuzmic, BioKin, Ltd., Madison, Wis.) were used to determine Ki app.
Urokinase inhibition determinations were made in 50 mM Tris (pH 7.5), 150 mM NaCl, 0.05% Tween-20, 0.002% antifoam, and 1 mM EDTA. human Urokinase (from American Diagnostica, Conn., USA). […] Initial velocity measurements calculated from the progress curves by a kinetic analysis program (Batch Ki; Peter Kuzmic, BioKin, Ltd., Madison, Wis.) were used to determine Ki app.

T1 sequence (P00742 235-488 limits assumed): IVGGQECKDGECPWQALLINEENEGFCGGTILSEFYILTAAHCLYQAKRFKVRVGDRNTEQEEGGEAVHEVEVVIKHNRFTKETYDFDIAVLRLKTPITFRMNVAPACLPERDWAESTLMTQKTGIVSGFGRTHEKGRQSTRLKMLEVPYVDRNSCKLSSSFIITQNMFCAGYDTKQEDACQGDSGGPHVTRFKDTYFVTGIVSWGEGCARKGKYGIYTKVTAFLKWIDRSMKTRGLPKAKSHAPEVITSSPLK
T1 sequence (P00742 41-179 partner limits assumed): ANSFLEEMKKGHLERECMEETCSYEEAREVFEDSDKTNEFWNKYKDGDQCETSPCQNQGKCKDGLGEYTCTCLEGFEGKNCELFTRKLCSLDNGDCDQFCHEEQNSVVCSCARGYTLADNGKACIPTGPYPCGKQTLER

Molecule Cc1cc(I)c(O)c(C(=O)Nc2ccc(C(=N)N)cc2)c1 [Ex. 1, N-(4—Carbamimidoyl-phenyl)-2-hydroxy-3-iodo-5-methyl-benzamide] has a Ki [1] of 0.88 µM.

For Cc1cc(Br)c(O)c(C(=O)Nc2ccc(C(=N)N)cc2)c1 [Ex. 5], the Ki [1] was 0.84 µM and the Ki [2] was 290 nM.

With N=C(N)Nc1ccc(NC(=O)c2cc3ccccc3cc2O)cn1 [Ex. 201, 3-hydroxy-naphthalene-2-carboxylic acid (6-guanidino-pyridin-3-yl)-amide] the Ki [1] was 130 µM and the Ki [2] was 326 nM.

Molecule Cc1cc(I)c(O)c(C(=O)Nc2ccc(NC(=N)N)nc2)c1 [Ex. 205] has a Ki [1] of 290 µM and a Ki [2] of 5500 nM.

For CC(C)c1cc(C(=O)Nc2ccc(C(=N)N)cc2)c(O)c(C(C)C)c1 [compound 24], the Ki [1] was 34 µM and the Ki [2] was 2900 nM.
